Consider two molecules from patent publication US20250186421A1, “METHODS OF TREATING INFLAMMATORY AND/OR ALLERGIC DISORDERS WITH NORKETOTIFEN” (Bridge Pharma, Inc., priority 2025, published 2025).

Series [1] has as its system atopic dermatitis. The conditions noted are these: 16 weeks, 224 subjects, cited from earlier work.
For series [2] the following is noted: dog, in vivo. On the procedure:
In the Phase 2 study described herein, doses of 4 mg (maintenance) and 8 mg (loading) were used, with very good effects and with no toxicity. The margin of safety (MOS) was calculated by dividing animal: human doses in mg/kg, or dividing animal systemic exposure (AUC) at no adverse effect level (NOAEL) (a 28-day dog study), with human systemic exposure AUC (from human Phase 1 study), or by dividing animal: to human dose expressed in m2 (body surface area—BSA), or by calculating HED (human equivalent dose).

A short description of series [3]: Fed and fasted oral administration of norketotifen to dogs (food effect PK). In kind it is in vivo. The conditions noted are these: 4 mg/kg oral; for AUC(0-inf) / Cmax: dog, plasma, po, 4 mg/kg. On the procedure:
Norketotifen was administered to dogs with and without food. For fed animals, canned food (one can (374 g) of Lamb Ground Dinner with Chicken & Rice per dog was weighed then offered for a period of 30 min prior to dosing at 4 mg/kg. After dosing, dry food (25% protein) was offered. For fasted animals, dogs were fasted overnight and until 4 h post dose and then offered dry food. The results are given in Table 2.

Series [4] is described as follows: PK parameters in plasma and skin of dogs after 28 days of oral dosing. The conditions noted are these: for AUC(0-inf): N=5; for MRT / half-life: dog, po. In kind it is in vivo. An excerpt:
However, for the treatment of the dermal and pulmonary disorders described herein for treatment efficacy, the dermal/pulmonary exposure are more important than systemic exposure, that is, efficacy depends on the skin/pulmonary AUC/Cmax, which are considered to be sites of action for these conditions. The pharmacokinetic parameters in skin and plasma after oral dosing of norketotifen to dogs (N=5) are shown below.

The test system of series [5] is atopic dermatitis. Kind of series: Phase 2a study of oral norketotifen in atopic dermatitis. Type of series: in vivo, human. On the procedure: The efficacy and safety of norketotifen orally administered to human subjects over a 28 day period were determined in a Phase 2 study. Norketotifen efficacy was compared to the clinical data in the prescribing information for Eucrisa® by dermal application; and compared to the clinical data in the prescribing information (product monograph) for Dupixent® by subcutaneous administration. In the Phase 2a study, 8 subjects were administered Placebo and 16 subjects were administered norketotifen. Oral norketotifen was administered at 4 mg BID (twice per day) for 4 days, followed by 4 mg QD (once per day). The duration of the study was 4 weeks. The parameters determined were: IGA score, Investigator's Global Assessment scale. The scale is as follows: • 0=clear—No inflammatory signs of atopic dermatitis (no erythema, no induration/papulation, no lichenification, no oozing/crusting). Post-inflammatory hyperpigmentation and/or hypopigmentation may be present. • 1=almost clear—Barely perceptible erythema, barely perceptible induration/papulation, and/or minimal lichenification. No oozing or crusting. • 2=mild—Slight but definite erythema (pink), slight but definite induration/papulation, and/or slight but definite lichenification. No oozing or crusting. • 3=moderate—Clearly perceptible erythema (dull red), clearly perceptible induration/papulation, and/or clearly perceptible lichenification. Oozing and crusting may be present. • 4=severe—Marked erythema (deep or bright red), marked induration/papulation, and/or marked lichenification. Disease is widespread in extent. Oozing or crusting may be present. In the IGA assessment, a responder was identified as a subject with IGA 0 or 1 (clear or almost clear) after treatment. A partial responder was defined as having an IGA score>1, but less than the initial score recorded on Day 1. A non-responder is a subject in which the initial IGA score was identical to the IGA score at the end of treatment (i.e. no change in score numbers). […] In Table 4, the results for norketotifen were compared to the results from the Dupixent® prescribing information.

A short description of series [6]: Accumulation of norketotifen in skin after oral administration. The conditions noted are these: read-out: Terminal half-life (t1/2e). In kind it is in vivo. The source says:
As used herein, the term biophase refers to the site(s) where a drug expresses its therapeutic activity. […] Thus, norketotifen can advantageously be used to treat dermal inflammatory and/or allergic diseases.

Series [7] in a line: Distribution of norketotifen to the lungs after oral administration. Type of series: in vivo. The conditions noted are these: lung / plasma, read-out: Lung concentration relative to plasma concentration. An excerpt: Norketotifen, after oral administration, is rapidly absorbed and is also preferentially distributed to the lungs, where the concentration of RS-norketotifen can reach concentrations that may be 100 times higher than the plasma concentration.

Series [8] in a line: Phase 1 study, 8 mg/day for 7 days, plasma steady-state. In kind it is in vivo, human. The conditions noted are these: 8 mg/day for 7 days Phase 1 study.
A short description of series [9]: Incidence of vomiting in dogs administered norketotifen as a function of Cmax and AUC. In kind it is in vivo. The conditions noted are these: FIGS. 1 and 2.
[10] abbreviates: Fast (fasted overnight until 4 h post dose).
Where [11] appears, read: oral 4 mg BID for 4 days, then 4 mg QD for 24 days, 4 weeks, 16 subjects.

Like-named read-outs stand apart in the source and are kept apart here. Marks after values point to notes of the source that are not given here.

Regarding “Dupilumab: recombinant human IgG4 monoclonal antibody binding IL-4Rα, inhibits IL-4 and IL-13 signaling; subcutaneous injection”, the “IGA scores ≤1, percent responders” value in series [1] (300 mg Q2W subcutaneous) is recorded as 37.9%. In series [1] (pruritus NRS 0-10, 300 mg Q2W), the “NRS ≥4 score improvement, percentage response for dupilumab group” value is 40.8%.
What is called MRT is a mean duration of stay, worked out from the concentration-time curve. As to `O=C1Cc2ccccc2C(=C2CCNCC2)c2ccsc21` (racemic) [norketotifen], the “Margin of safety (animal: human), Systemic exposure (AUC0-inf.)” value in series [2] (2 mg) is given as 127-fold; in series [2] (4 mg), 72-fold; in series [2] (16 mg), 19-fold; in [2] (32 mg), 6-fold; in series [2] (64 mg) it was 3-fold. The “% difference in AUC0-∞, fed vs fasted (reduction in fed animals)” value in series [3] was found to be 26%. In addition, the AUC(0-inf) in series [3] (setting [10]) was found to be 522 ng·h/mL; in series [3] (Fed), 390 ng·h/mL; in series [4] (dog plasma, after 28 days of oral dosing), 4520 ng·h/mL; in series [4] (dog skin, after 28 days of oral dosing) it was 46100 ng·h/mL. In addition, the Cmax is 93 ng/mL in series [3] (setting [10]) and 58 ng/mL in series [3] (Fed). In addition, the mean residence time MRT stood at 17.5 h in [4] (plasma, dog plasma, after 28 days of oral dosing, read-out: MRT (mean residence time)); 159 h in series [4] (skin, dog skin, Phase 2 = 14 day post dosing period, read-out: MRT (phase 2)); 86.5 h in series [4] (skin, dog skin, after 28 days of oral dosing, read-out: MRT (mean residence time)). In addition, the half-life is 38.3 h in [4] (plasma, dog plasma, after 28 days of oral dosing, read-out: t ½(e) (converted)); 160 h in [4] (skin, dog skin, Phase 2 = 14 day post dosing period, read-out: t ½(e) (phase 2) (converted)); 25.4 h in series [4] (skin, dog skin, after 28 days of oral dosing, read-out: t ½(e) (converted)); 144 to 168 h in series [6]. For the same molecule, the “Safety/tolerability in the safety population” value in series [5] (28 days oral treatment, adverse event in only one patient, resolved completely) is “well-tolerated, with no reported instances of serious adverse events or treatment-related adverse events”. In addition, the “Toxicity at Phase 2 doses” value in series [5] (doses of 4 mg (maintenance) and 8 mg (loading)) is on record as “no toxicity”. In addition, the “Nausea or vomiting when dosed on a full stomach” value in series [5] (human subjects, with food, up to a dose of 16 mg) was “no nausea or vomiting was noted”. Moreover, the “% reduction of affected BSA (Baseline to Day 29)” value in series [5] (oral 4 mg BID for 4 days, then 4 mg QD for 24 days) is listed as −63.3%^. Besides, the “IGA scores >1, but less than the initial scores on Day 1 (partial responders)” value in [5] (setting [11]) was 50%. Further, the “Non responders at all” value in [5] (setting [11]) is reported as 6.1%. For the same molecule, the “IGA scores ≤1, percent responders” value in series [5] (oral 4 mg BID for 4 days, then 4 mg QD for 24 days, 4 weeks, 16 subjects, p = 0.0095 / 0.0031 vs Placebo (Fisher's exact test)) is on record as 43.89% ^b. The “Pruritus, score 0, percentage improvement for NK group” value in series [5] (pruritus severity scale 0-3, 4 weeks, p = 0.016 vs Placebo) is 62.5%^c. The Kp in series [7] is around 100. Moreover, the “Time to plasma steady-state” value in series [8] is on record as at most 4 days. Further, the “Incidence of vomiting vs systemic Cmax and AUC” value in [9] is “incidence of vomiting increases as both systemic Cmax and AUC increase”.
